In the supplement of paper PMC10307832:

How the values were obtained:
Test in all cases: relative viability (nuclei count vs DMSO), 5 days (fraction); higher = more cells survive
[1] = compound: C1COCCN1C2=NC(=NC3=C2OC4=C3C=CC=N4)C5=CC(=CC=C5)NC(=O)C6=CN=C(C=C6)N + CC(=O)Nc1cccc(-n2c(=O)n(C3CC3)c(=O)c3c(Nc4ccc(I)cc4F)n(C)c(=O)c(C)c32)c1 [Trametinib] (partner 0.02 µM)
In short: (§1)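 Relative viability divides the nuclei count in treated wells by that in vehicle wells. Lung cancer cell lines were seeded in 1536-well plates, dosed by pin tool the next day, and fixed and stained after 5 days in one step with final 0.05% Triton X-100, 1% formaldehyde and 1 ug/ml Hoechst. Dosing was a single drug or a fixed anchor-drug dose plus five library-drug doses (not always all listed) in √10 steps, and values are medians of duplicate plates imaged at 4×.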

Entinostat + Navitoclax = compound: Nc1ccccc1NC(=O)c1ccc(CNC(=O)OCc2cccnc2)cc1 [Entinostat] + CC1(C)CCC(c2ccc(Cl)cc2)=C(CN2CCN(c3ccc(C(=O)NS(=O)(=O)c4ccc(N[C@H](CCN5CCOCC5)CSc5ccccc5)c(S(=O)(=O)C(F)(F)F)c4)cc3)CC2)C1 [Navitoclax] (partner 0.5 µM)
In short: as §1

Entinostat + Phenformin = compound: Nc1ccccc1NC(=O)c1ccc(CNC(=O)OCc2cccnc2)cc1 [Entinostat] + N=C(N)NC(=N)NCCc1ccccc1 [Phenformin] (partner 250 µM)
In short: as §1

Entinostat + Olaparib = compound: Nc1ccccc1NC(=O)c1ccc(CNC(=O)OCc2cccnc2)cc1 [Entinostat] + O=C(c1cc(Cc2n[nH]c(=O)c3ccccc23)ccc1F)N1CCN(C(=O)C2CC2)CC1 [Olaparib] (partner 8 µM)
In short: as §1

Row | Cell Line | relative viability ([1]; first compound 0.02 µM) | relative viability ([1]; first compound 0.06325 µM) | relative viability ([1]; first compound 0.2 µM) | relative viability ([1]; first compound 0.6325 µM) | relative viability ([1]; first compound 2 µM) | relative viability (Entinostat + Navitoclax; first compound 0.02 µM) | relative viability (Entinostat + Navitoclax; first compound 0.06325 µM) | relative viability (Entinostat + Navitoclax; first compound 0.2 µM) | relative viability (Entinostat + Navitoclax; first compound 0.6325 µM) | relative viability (Entinostat + Navitoclax; first compound 2 µM) | relative viability (Entinostat + Phenformin; first compound 0.02 µM) | relative viability (Entinostat + Phenformin; first compound 0.06325 µM) | relative viability (Entinostat + Phenformin; first compound 0.2 µM) | relative viability (Entinostat + Phenformin; first compound 0.6325 µM) | relative viability (Entinostat + Phenformin; first compound 2 µM) | relative viability (Entinostat + Olaparib; first compound 0.02 µM) | relative viability (Entinostat + Olaparib; first compound 0.06325 µM) | relative viability (Entinostat + Olaparib; first compound 0.2 µM) | relative viability (Entinostat + Olaparib; first compound 0.6325 µM) | relative viability (Entinostat + Olaparib; first compound 2 µM)
1 | 201T | 0.697 | 0.713 | 0.705 | 0.686 | 0.563 | 1.2 | 1.16 | 1.1 | 0.959 | 0.779 | 0.46 | 0.414 | 0.451 | 0.382 | 0.303 | 0.838 | 0.775 | 0.694 | 0.489 | 0.459
2 | A549 | – | – | – | – | – | 1.22 | 1.21 | 1.07 | 0.787 | 0.395 | 0.166 | 0.207 | 0.197 | 0.169 | 0.101 | 0.332 | 0.375 | 0.334 | 0.258 | 0.232
3 | A-427 | 0.718 | 0.732 | 0.682 | 0.684 | 0.563 | 1.05 | 1.01 | 0.958 | 0.715 | 0.669 | 0.365 | 0.327 | 0.368 | 0.318 | 0.266 | 0.721 | 0.717 | 0.678 | 0.554 | 0.553
4 | ABC-1 | – | – | – | – | – | – | – | – | – | – | 0.215 | 0.267 | 0.263 | 0.268 | 0.215 | 0.508 | 1.11 | 0.758 | 0.993 | 1.07
5 | BEN | 1 | 0.947 | 1.11 | 0.888 | 0.939 | 0.0534 | 0.0509 | 0.0495 | 0.0765 | 0.062 | 0.247 | 0.267 | 0.258 | 0.238 | 0.254 | 1.22 | 1.15 | 1.09 | 0.64 | 0.371
6 | CAL-12T | 0.28 | 0.324 | 0.272 | 0.354 | 0.303 | 1.22 | 1.17 | 1.41 | 1.22 | 1.08 | 0.649 | 0.581 | 0.593 | 0.523 | 0.325 | 0.728 | 0.781 | 0.854 | 0.767 | 0.572
7 | COR-L23 | 0.609 | 0.669 | 0.663 | 0.593 | 0.469 | 0.86 | 0.8 | 0.865 | 0.441 | 0.123 | 0.433 | 0.429 | 0.389 | 0.245 | 0.144 | 0.323 | 0.311 | 0.347 | 0.184 | 0.127
8 | COR-L 105 | 0.421 | 0.411 | 0.415 | 0.403 | 0.465 | 0.771 | 0.911 | 0.738 | 0.407 | 0.333 | 0.499 | 0.561 | 0.45 | 0.411 | 0.23 | 0.683 | 0.825 | 0.773 | 0.483 | 0.407
9 | Calu-6 | – | – | – | – | – | 0.761 | 0.859 | 0.774 | 0.524 | 0.308 | – | – | – | – | – | 0.603 | 0.539 | 0.637 | 0.381 | 0.323
10 | ChaGo-K-1 | 0.906 | 0.987 | 0.941 | 0.804 | 0.602 | 1.23 | 1.04 | 1.11 | 0.783 | 0.679 | 0.607 | 0.471 | 0.567 | 0.456 | 0.462 | 0.426 | 0.425 | 0.497 | 0.358 | 0.331
11 | EBC-1 | – | – | – | – | – | 0.422 | 0.326 | 0.287 | 0.184 | 0.15 | – | – | – | – | – | 0.68 | 0.732 | 0.696 | 0.203 | 0.174
12 | EKVX | 0.322 | 0.334 | 0.298 | 0.248 | 0.244 | 0.896 | 0.835 | 0.899 | 0.643 | 0.457 | 0.225 | 0.243 | 0.227 | 0.222 | 0.205 | 0.766 | 0.829 | 0.825 | 0.73 | 0.386
13 | EMC-BAC-2 | 0.838 | 0.924 | 0.853 | 0.789 | 0.725 | 1.21 | 1.15 | 1.25 | 0.968 | 0.642 | 0.523 | 0.533 | 0.449 | 0.416 | 0.293 | 0.48 | 0.444 | 0.388 | 0.3 | 0.23
14 | EPLC-272H | 0.278 | – | 0.235 | 0.297 | 0.281 | 1.12 | 0.956 | 0.979 | 0.424 | 0.365 | 0.297 | 0.303 | 0.276 | 0.175 | 0.217 | 0.726 | 0.614 | 0.875 | 0.273 | 0.191
15 | H3255 | 0.703 | 0.588 | 0.604 | 0.663 | 0.421 | 0.536 | 0.453 | 0.309 | 0.174 | 0.121 | 0.378 | 0.376 | 0.272 | 0.316 | 0.267 | 0.606 | 0.51 | 0.454 | 0.364 | 0.308
16 | HARA | 0.728 | 0.738 | 0.848 | 0.433 | 0.601 | 1.18 | 1.14 | 1.12 | 1.09 | 0.935 | 0.459 | 0.441 | 0.494 | 0.364 | 0.277 | 0.761 | 0.944 | 0.675 | 0.876 | 0.314
17 | HCC-15 | 0.413 | 0.423 | 0.343 | 0.325 | 0.278 | 0.753 | 0.699 | 0.58 | 0.302 | 0.196 | 0.491 | 0.461 | 0.453 | 0.246 | 0.175 | 0.684 | 0.617 | 0.56 | 0.377 | 0.201
18 | HCC-44 | 1.12 | 1.31 | 1.04 | 1.09 | 1 | 1.02 | 0.826 | 0.418 | 0.403 | 0.235 | 0.204 | 0.197 | 0.129 | 0.11 | 0.0548 | 0.957 | 0.906 | 0.93 | 0.875 | 0.7
